{"source": "patent US20060183773A1", "about": "“Uses of methylphenidate derivatives” (priority 2005, published 2006)", "system": "peripheral blood lymphocytes (PBL)", "assay": "Cell clumping of PHA-stimulated PBL (microscopy)", "type": "cell-based, human", "conditions": "PBL of donor GR283; 5 μg/ml PHA; compound 5, 15, 50 μg/ml; 24 h pre-incubation + 72 h", "description": "Whole blood was drawn from GR283, a human volunteer with known allergies, into a glass vacutainer tube containing no anticoagulant. This blood was allowed to clot, and the serum was removed by centrifugation and then heat inactivated by placing it in a water bath at 56° C. for 30 minutes. Whole blood from GR283 was also drawn into a glass vacutainer tube containing heparin and used for peripheral blood lymphocytes (PBL) isolation as follows. Whole blood was layered over room temperature Histopaque 1077 solution and centrifuged at 2000 rpm for 15 minutes at room temperature. Cells at the plasma-Histopaque interface were then removed and washed with culture medium (IMDM medium with 10% heat-inactivated GR283 serum plus 1% penicillin/streptomycin) at 37° C.\nThe compound of formula II (see above) and methylphenidate (both obtained from Dr. Jeffrey D. Winkler, University of Pennsylvania, Philadelphia, Pa.) in culture medium were added to wells of a 96-well plate to give final concentrations of 5 μg/ml, 15 μg/ml and 50 μg/ml of the compound of formula II and of methylphenidate. […] Then, GR283's PBL in culture medium were added to the wells to give a final concentration of 150,000 cells per well, and the plates were incubated at 37° C., 5% CO2 for 24 hours. […]"}
{"smiles": "COC(=O)C(c1ccc(-c2ccccc2)cc1)C1CCCCN1", "note": "(stereo not shown) [Cpd II]", "values": [{"measurement": "cell clumping induced by PHA", "result": "reduced the amount of cell clumping induced by 5 μg/ml PHA in a dose-dependent manner"}]}
